These results are taken from patent US4663456A, “2-(substituted piperazinylalkyl)β-carbolines useful in treatment of psychological disorders” (American Home Products Corporation, priority 1985, dated 1987).

As a reminder, the Ki is a dissociation constant, usually derived from enzyme kinetics or from competition with a known ligand.

The target in experiment [1] is T1, limbic D-2 (Rattus norvegicus, UniProt P61169).
T1 construct: from tissue; host or cells: homogenized limbic brain tissue
The experiment is described as follows: limbic D-2 binding (3H-spiroperidol, homogenized limbic brain tissue). The protocol:
Binding in the presence of the test compound is expressed as a percent of specific binding (total binding less binding in the presence of 1 μM (+)butaclamol). An inhibition constant (Ki) is calculated for each test compound to catagorize its limbic D-2 binding potential. The larger the number, the less potential for dopamine receptor binding and attendant side effects from administration of the antipsychotic agent.

Experiment [2] relates to conditioned avoidance responding in trained male CD rats. Kind of experiment: conditioned avoidance lever response test (block of avoidance responding, i.p.). It is filed as in vivo, male CD rats (Charles River). Conditions: Rattus norvegicus, ip, from dose-effect regression line, read-out: AB50 (50% block in avoidance responding). The source says:
The antipsychotic properties of the compounds of this invention were established by standard pharmacologically accepted procedures involving conditioned avoidance studies in which trained male CD rats (Charles River), 400-450 gm body weight are exposed to a fifteen second warning tone (conditioned stimulus) continued for an additional fifteen seconds accompanied by electric shock. The rat can avoid the electric shock by depression of a response lever (lever-response). A response during the initial warning tone is considered an avoidance response. The avoidance response is determined and expressed as a percentage of total trials from an appropriate number of trials and a 50% block in avoidance responding (AB50) is obtained from a dose-effect regression line. All the data is based upon (mg/kg) dosing of the animals.

T1 sequence (P61169 whole entry): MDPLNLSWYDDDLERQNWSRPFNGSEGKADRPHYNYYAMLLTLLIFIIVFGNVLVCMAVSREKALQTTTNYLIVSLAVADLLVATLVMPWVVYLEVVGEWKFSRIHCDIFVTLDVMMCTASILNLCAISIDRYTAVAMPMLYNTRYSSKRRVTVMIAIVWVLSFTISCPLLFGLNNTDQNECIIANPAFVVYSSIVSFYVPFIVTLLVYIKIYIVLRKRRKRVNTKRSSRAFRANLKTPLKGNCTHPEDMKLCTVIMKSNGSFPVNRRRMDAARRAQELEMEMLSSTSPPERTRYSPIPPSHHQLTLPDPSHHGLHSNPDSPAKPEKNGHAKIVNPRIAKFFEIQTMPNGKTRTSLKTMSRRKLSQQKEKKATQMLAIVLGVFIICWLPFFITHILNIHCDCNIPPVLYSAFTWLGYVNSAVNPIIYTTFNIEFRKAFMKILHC

Compound `C[C@@H]1CN(CCCN2CCc3c([nH]c4ccccc34)C2)C[C@@H](C)N1` (relative stereo) [Example 3, 2-[3-(trans-3,5-Dimethyl-1-piperazinyl)propyl]-2,3,4,9-tetrahydro-1H-pyrido[3,4-b]indole] returned a Ki in experiment [1] (bound) above 5 µM. Further, the “percent, limbic D-2 binding” value in experiment [1] (concentration not given) is given as 38%.
Turning to `c1cnc(N2CCN(CCCN3CCc4c([nH]c5ccccc45)C3)CC2)nc1` [Example 1, 2,3,4,9-Tetrahydro-2-[3-[4-(2-pyrimidinyl)-1-piperazinyl]propyl]-1H-pyrido[3,4-b]indole], in experiment [2], the ED50 was 34.7 mg/kg.
